Reference: publication PMC7098370 (Toxicological Sciences, 2020)
Where two headings read alike, the source gives them in different places. Marks after values point to notes of the source that are not given here.

Experiments:
[1] = Target organ study: tissue distribution of cobalt after 90-day oral exposure; type: in vivo, rat; details: 90-day exposure to 7.44 mg Co/kg bw/day
[2] = Mass balance study: urinary and fecal Co excretion after single oral gavage; type: in vivo, rat; details: single oral bolus 10 mg/kg bw (2.48 mg Co/kg bw), 72 h
Crl:CD(SD) rats = test: Subchronic 90-day oral RDT study with reproductive toxicity screening; type: in vivo, rat; details: for erythroid hyperplasia in the bone marrow, incidence: 90 days; for body weight at autopsy reduced: 90-day exposure; for dose level from which hematological parameters were significantly affected: 90-day oral
[3] = 0.08–0.19 mg Co/kg bw/day, 3-month, ref Tvermoes et al., 2014, cited from earlier work
[4] = test system: children with sickle cell anemia; details: 1.4–1.8 mg Co/kg/day, ref Gross et al., 1955, Kriss et al.; cited from earlier work
[5] = Bioelution in simulated gastric fluid
female mice = details: 15-day exposure, ref Finley et al. (2012), Shrivastava et al., 1996; cited from earlier work
rats [6] = details: cited from earlier work
[7] = Bioelution in simulated intestinal fluid; details: simulated intestinal fluid pH 7.4, 2 h
[8] = Plasma toxicokinetic study; type: in vivo, rat; details: for C max / K el / t 1/2 / Bioavailability (absolute): 10 mg test item/kg PO (2.48 mg Co/kg); for Bioavailability (absolute): vs CoCl2 IV
[9] = oral administration; ref Kirchgessner et al., 1994; cited from earlier work
rats [10] = details: oral, ref Speijers et al. (1982), cited from earlier work
[11] = cobalt dichloride hexahydrate vs tricobalt tetraoxide
[12] = females, 0.74 mg Co/kg bw/day, end of 90-day oral exposure, experimental group
[13] = females, 2.48 mg Co/kg bw/day, end of 90-day oral exposure, experimental group
[14] = females, 7.44 mg Co/kg bw/day, end of 90-day oral exposure, experimental group
[15] = females, 7.44 mg Co/kg bw/day, recovery group, end of 28-day recovery period
[16] = females, 7.44 mg Co/kg bw/day, recovery group, end of 90-day oral exposure
[17] = males, 0.74 mg Co/kg bw/day, end of 90-day oral exposure, experimental group
[18] = males, 2.48 mg Co/kg bw/day, end of 90-day oral exposure, experimental group
[19] = males, 7.44 mg Co/kg bw/day, end of 90-day oral exposure, experimental group
[20] = males, 7.44 mg Co/kg bw/day, recovery group, end of 28-day recovery period
[21] = males, 7.44 mg Co/kg bw/day, recovery group, end of 90-day oral exposure
[22] = listed as Co Dichloride Hexahydrate

O.O.O.O.O.O.[Cl-].[Cl-].[Co+2] [CoCl2, Cobalt dichloride hexahydrate]
elevation of tissue Co concentration vs control, most tissues and organs [1]: around 20 fold
Fecal Excretion (%) ([2]; females): 98.5 % of Co applied
Sum of Urinary and Fecal Excretion (%) ([2]; females): 110.7 % of Co applied
Urinary Excretion (%) ([2]; females): 12.2 % of Co applied
Fecal Excretion (%) ([2]; males): 82.4 % of Co applied
Sum of Urinary and Fecal Excretion (%) ([2]; males): 99.5 % of Co applied
Urinary Excretion (%) ([2]; males): 17.1 % of Co applied
erythroid hyperplasia in the bone marrow, incidence (Crl:CD(SD) rats; 2.48 mg Co/kg bw/day, females): 7/10
erythroid hyperplasia in the bone marrow, incidence (Crl:CD(SD) rats; 2.48 mg Co/kg bw/day, males): 4/10
erythroid hyperplasia in the bone marrow, incidence (Crl:CD(SD) rats; 7.44 mg Co/kg bw/day, both sexes): 7/10
premature deaths (Crl:CD(SD) rats; 90-day oral gavage, all doses): None of the animals treated with any dose of CoCl2 died prematurely
LOAEL (systemic) (Crl:CD(SD) rats; 90-day oral gavage, rats): 2.5 mg Co/kg bw/day
NOAEL (reproductive) (Crl:CD(SD) rats; 90-day oral gavage, rats): > 7.5 mg Co/kg bw/day
difference in RDT lowest observed adverse effect level (factor) (Crl:CD(SD) rats; [11]): 310
HGB, %Diff vs control (Crl:CD(SD) rats; [12]): +0.9%
HGB, mean (Crl:CD(SD) rats; [12]): 9.62 mmol/L
RBC, %Diff vs control (Crl:CD(SD) rats; [12]): +0.6%
RBC, mean (Crl:CD(SD) rats; [12]): 8.38 ×10E6/µl
Reti, %Diff vs control (Crl:CD(SD) rats; [12]): −18.9%
Reti, mean (Crl:CD(SD) rats; [12]): 12 %0 of RBC
HGB, %Diff vs control (Crl:CD(SD) rats; [13]): +0.3%
HGB, mean (Crl:CD(SD) rats; [13]): 9.56 mmol/L
RBC, %Diff vs control (Crl:CD(SD) rats; [13]): −2.6%
RBC, mean (Crl:CD(SD) rats; [13]): 8.11 ×10E6/µl
Reti, %Diff vs control (Crl:CD(SD) rats; [13]): +33.1%
Reti, mean (Crl:CD(SD) rats; [13]): 19.7 %0 of RBC
body weight at autopsy reduced (Crl:CD(SD) rats; females, 7.44 mg Co/kg bw/day): 9%
HGB, %Diff vs control (Crl:CD(SD) rats; [14]): +13.4%
HGB, mean (Crl:CD(SD) rats; [14]): 10.81 mmol/L
RBC, %Diff vs control (Crl:CD(SD) rats; [14]): +9.8%
RBC, mean (Crl:CD(SD) rats; [14]): 9.15 ×10E6/µl
Reti, %Diff vs control (Crl:CD(SD) rats; [14]): +4.1%
Reti, mean (Crl:CD(SD) rats; [14]): 15.4 %0 of RBC
HCT, mean (Crl:CD(SD) rats; [15]): • 45.02 • .841%
HGB, mean (Crl:CD(SD) rats; [15]): • 9.56 • .936 mmol/l
RBC, mean (Crl:CD(SD) rats; [15]): • 8.01 • .948 ×10E6/µl
Reti, mean (Crl:CD(SD) rats; [15]): • 15 • .232 %0 of RBC
HCT, mean (Crl:CD(SD) rats; [16]): • 52.3 ^** • .0025%
HGB, mean (Crl:CD(SD) rats; [16]): • 11.1 ^** • .0017 mmol/l
RBC, mean (Crl:CD(SD) rats; [16]): • 9.648 ^* • .030 ×10E6/µl
Reti, mean (Crl:CD(SD) rats; [16]): • 15.6 • .933 %0 of RBC
body weight reduced at the end of the 4-week recovery period (Crl:CD(SD) rats; females, 7.44 mg Co/kg bw/day, test day 118): 13%
dose level from which hematological parameters were significantly affected (Crl:CD(SD) rats; females): 7.44 mg/kg bw/day
changes in hematological parameters compared with control (Crl:CD(SD) rats; male rats, 90-day exposure at 7.44 mg Co/kg bw/day): up to 30%
HCT, %Diff vs control (Crl:CD(SD) rats; [17]): +1.2%
HCT, mean (Crl:CD(SD) rats; [17]): 50.51%
HGB, %Diff vs control (Crl:CD(SD) rats; [17]): +1.4%
HGB, mean (Crl:CD(SD) rats; [17]): 10.50 mmol/L
PLT, %Diff vs control (Crl:CD(SD) rats; [17]): −13.5%
PLT, mean (Crl:CD(SD) rats; [17]): 793.6 ×10E3/µl
RBC, %Diff vs control (Crl:CD(SD) rats; [17]): −1.4%
RBC, mean (Crl:CD(SD) rats; [17]): 9.33 ×10E6/µl
Reti, %Diff vs control (Crl:CD(SD) rats; [17]): +7.8%
Reti, mean (Crl:CD(SD) rats; [17]): 15.2 %0 of RBC
HCT, %Diff vs control (Crl:CD(SD) rats; [18]): +10.3%
HCT, mean (Crl:CD(SD) rats; [18]): 55.07%
HGB, %Diff vs control (Crl:CD(SD) rats; [18]): +10.7%
HGB, mean (Crl:CD(SD) rats; [18]): 11.46 mmol/L
PLT, %Diff vs control (Crl:CD(SD) rats; [18]): −13.9%
PLT, mean (Crl:CD(SD) rats; [18]): 789.2 ×10E3/µl
RBC, %Diff vs control (Crl:CD(SD) rats; [18]): +9.2%
RBC, mean (Crl:CD(SD) rats; [18]): 10.33 ×10E6/µl
Reti, %Diff vs control (Crl:CD(SD) rats; [18]): −23.4%
Reti, mean (Crl:CD(SD) rats; [18]): 10.8 %0 of RBC
body weight at autopsy reduced (Crl:CD(SD) rats; males, 7.44 mg Co/kg bw/day): 11%
HCT, %Diff vs control (Crl:CD(SD) rats; [19]): +24.2%
HCT, mean (Crl:CD(SD) rats; [19]): 61.98%
HGB, %Diff vs control (Crl:CD(SD) rats; [19]): +25.6%
HGB, mean (Crl:CD(SD) rats; [19]): 13.00 mmol/L
PLT, %Diff vs control (Crl:CD(SD) rats; [19]): −30.5%
PLT, mean (Crl:CD(SD) rats; [19]): 637.1 ×10E3/µl
RBC, %Diff vs control (Crl:CD(SD) rats; [19]): +18.9%
RBC, mean (Crl:CD(SD) rats; [19]): 11.25 ×10E6/µl
Reti, %Diff vs control (Crl:CD(SD) rats; [19]): −25.5%
Reti, mean (Crl:CD(SD) rats; [19]): 10.5 %0 of RBC
HCT, mean (Crl:CD(SD) rats; [20]): • 49.58 • .334%
HGB, mean (Crl:CD(SD) rats; [20]): • 10.64 • .087 mmol/l
PLT, mean (Crl:CD(SD) rats; [20]): • 917.6 • .551 ×10E3/µl
RBC, mean (Crl:CD(SD) rats; [20]): • 9.086 • .373 ×10E6/µl
Reti, mean (Crl:CD(SD) rats; [20]): • 15.1 • .0544 %0 of RBC
HCT, mean (Crl:CD(SD) rats; [21]): • 58.68** • .002%
HGB, mean (Crl:CD(SD) rats; [21]): • 12.74** • .0015 mmol/l
PLT, mean (Crl:CD(SD) rats; [21]): • 727.2 • .223 ×10E3/µl
RBC, mean (Crl:CD(SD) rats; [21]): • 10.89** • .0022 ×10E6/µl
Reti, mean (Crl:CD(SD) rats; [21]): • 15.6 • .400 %0 of RBC
dose level from which hematological parameters were significantly affected (Crl:CD(SD) rats; males): 2.48 mg Co/kg bw/day
absorption of Co ([3]; men): 20%
absorption of Co ([3]; women): 45%
thyroid effects [4]: decrease in iodine uptake and the development of goiters
difference in in vitro bioaccessibility (factor) [5, 11]: 440
Bioelution of Co in gastric fluid (% release), 2 h ([5]; simulated gastric fluid pH 1.5, 2 h, 37°C): 98.5 % release
dose at which histopathological changes in the thyroid were reported (female mice): approximately 50 mg Co/kg bw/day
dose at which adverse cardiac effects were observed (rats [6]; male SD rats, 3-month exposure, ref Domingo et al., 1984): 32 mg Co/kg bw/day
daily dose at which hematological effects were reported (rats [6]; rats, 7 days, ref Shrivastava et al., 2010): 12.5 mg Co/kg/day
Bioelution of Co in intestinal fluid (% release) [7]: 79 (2 h) % release
Bioelution of Co in intestinal fluid / cobalt release (µg Co/g sample) [7, 22]: 198 700 (2 h) µg Co/g sample
C max ([8]; females): 2.61 ng/mL
K el ([8]; females): 0.0508 h⁻¹
t 1/2 ([8]; females): 13.7 h
Bioavailability (absolute) ([8]; females): ~12%
Bioavailability (absolute) ([8]; females, listed as CoCl2.6H2O): 11.7 (absolute) %
C max ([8]; males): 2.51 ng/mL
K el ([8]; males): 0.0489 h⁻¹
t 1/2 ([8]; males): 14.2 h
Bioavailability (absolute) ([8]; males): approximately 7%
Bioavailability (absolute) ([8]; males, listed as CoCl2.6H2O): 6.81 (absolute) %
Bioavailability calculated from AUC as % of CoCl2 IV AUC, average of m + f: absolute bioavailability ([8]; oral, rats, average of males and females): Absolute bioavailability 9.3%
oral bioavailability ([8]; single oral bolus, rats, males and females not distinguished): ≤ 12%
absorbed Co excreted in the feces via the bile [9]: around 1%
Acute LD50 (mg Co/kg bw) (rats [10]): 190 mg Co/kg bw
Acute LD50 (mg substance/kg bw) (rats [10]): below 1000 mg substance/kg bw
Acute LD50 (mg substance/kg bw) (rats [10]; [22]): 766 [Speijers et al. (1982)] mg substance/kg bw
